# Experimental data: US20220347194A1, “METHODS AND COMPOSITIONS FOR TREATING PAIN AND OTHER EPH RECEPTOR-ASSOCIATED CONDITIONS” (THE BOARD OF REGENTS OF THE UNIVERSITY OF TEXAS SYSTEM, priority 2019, published 2022)
# Assays:
# [1] = biological target: T1, EphB1 kinase domain (Homo sapiens, UniProt P54762); test: Radiometric protein kinase assay (33PanQinase Activity Assay), EphB1; conditions: for inhibition of EphB1 kinase activity: concentrations up to 100 μM
# T1 sequence (P54762 619-882 limits assumed): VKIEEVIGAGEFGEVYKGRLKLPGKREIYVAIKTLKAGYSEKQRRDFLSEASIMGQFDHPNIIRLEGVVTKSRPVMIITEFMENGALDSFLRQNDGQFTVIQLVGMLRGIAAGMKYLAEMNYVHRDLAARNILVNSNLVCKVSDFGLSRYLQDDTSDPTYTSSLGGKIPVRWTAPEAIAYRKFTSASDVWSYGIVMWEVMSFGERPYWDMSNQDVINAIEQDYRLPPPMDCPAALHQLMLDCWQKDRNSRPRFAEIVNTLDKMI
# Protocol: (§2) Kinase domains were produced by ProQinase using human cDNAs to express recombinant GST/His-fusion proteins that were purified by affinity chromatography and determined to be enzymatically active by phosphorylation of a Poly (Glu, Tyr) substrate. The FDA compounds were assayed in 10 concentrations in the range from 1×10^−4 M to 3×10^−9 M for their ability to effect kinase activities. The final DMSO concentration in the reaction cocktails was 1% in all cases. Kinase assays were performed in 96-well FlashPlates™ from PerkinElmer (Boston, Mass., USA) in a 50 μl reaction volume. The reaction cocktail was pipetted in four steps in the following order: 20 μl of assay buffer (standard buffer), 5 μl of ATP solution (in H2O), 5 μl of test compound (in 10% DMSO), and 20 μl enzyme/substrate mix. […] The reaction cocktails were incubated at 30° C. for 60 minutes. The reaction was stopped with 50 μl of 2% (v/v) H3PO4, plates were aspirated and washed two times with 200 μl 0.9% (w/v) NaCl. Incorporation of ^33Pi was determined with a microplate scintillation counter (Microbeta, Wallac). All assays were performed with a BeckmanCoulter/SAGIAN™ Core System. The median value of the counts in column 1 (n=8) of each assay plate was defined as “low control”. This value reflects unspecific binding of radioactivity to the plate in the absence of a protein kinase but in the presence of the substrate. The median value of the counts in column 7 of each assay plate (n=8) was taken as the “high control”, i.e. full activity in the absence of any inhibitor. The difference between high and low control was taken as 100% activity. As part of the data evaluation the low control value from a particular plate was subtracted from the high control value as well as from all 80 “compound values” of the corresponding plate. The residual activity (in %) for each well of a particular plate was calculated by using the following formula: Res. Activity (%)=100×[(cpm of compound−low control)/(high control−low control)]
# (§3) The fitting method used was a least-squares fit.
# For each kinase, the median value of the cpm of three wells with complete reaction cocktails, but without kinase, was defined as “low control” (n=3). This value reflects unspecific binding of radioactivity to the plate in the absence of protein kinase but in the presence of the substrate. Additionally, for each kinase the median value of the cpm of three other wells with the complete reaction cocktail, but without any compound, was taken as the “high control”, i.e. full activity in the absence of any inhibitor (n=3). The difference between high and low control was taken as 100% activity for each kinase. As part of the data evaluation the low control of each row of a particular plate was subtracted from the high control value as well as from their corresponding “compound values”. The residual activity (in %) for each well of each row of a particular plate was calculated by using the following formula: Res. Activity (%)=100×[(cpm of compound−low control)/(high control−low control)]. […] The mathematical model used was “Sigmoidal response (variable slope)” with parameters “top” fixed at 100% and “bottom” at 0%.
# [2] = biological target: T2, EphB3 kinase domain (Homo sapiens, UniProt P54753); test: Radiometric protein kinase assay (33PanQinase Activity Assay), EphB3
# T2 sequence (P54753 633-896 limits assumed): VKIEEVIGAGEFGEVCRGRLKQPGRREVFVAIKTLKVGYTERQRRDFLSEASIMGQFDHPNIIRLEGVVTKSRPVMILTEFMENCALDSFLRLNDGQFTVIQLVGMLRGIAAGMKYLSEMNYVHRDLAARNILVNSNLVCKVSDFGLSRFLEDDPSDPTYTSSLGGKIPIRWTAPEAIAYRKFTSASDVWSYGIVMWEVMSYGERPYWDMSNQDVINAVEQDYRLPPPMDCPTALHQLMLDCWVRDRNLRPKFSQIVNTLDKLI
# Protocol: as §2, §3
# For each kinase, the median value of the cpm of three wells with complete reaction cocktails, but without kinase, was defined as “low control” (n=3). This value reflects unspecific binding of radioactivity to the plate in the absence of protein kinase but in the presence of the substrate. Additionally, for each kinase the median value of the cpm of three other wells with the complete reaction cocktail, but without any compound, was taken as the “high control”, i.e. full activity in the absence of any inhibitor (n=3). […] The residual activity (in %) for each well of each row of a particular plate was calculated by using the following formula: Res. Activity (%)=100×[(cpm of compound−low control)/(high control−low control)]. […]
# [3] = biological target: T3, EphB2 kinase domain (Homo sapiens, UniProt P29323); test: Radiometric protein kinase assay (33PanQinase Activity Assay), EphB2
# T3 sequence (P29323 621-884 limits assumed): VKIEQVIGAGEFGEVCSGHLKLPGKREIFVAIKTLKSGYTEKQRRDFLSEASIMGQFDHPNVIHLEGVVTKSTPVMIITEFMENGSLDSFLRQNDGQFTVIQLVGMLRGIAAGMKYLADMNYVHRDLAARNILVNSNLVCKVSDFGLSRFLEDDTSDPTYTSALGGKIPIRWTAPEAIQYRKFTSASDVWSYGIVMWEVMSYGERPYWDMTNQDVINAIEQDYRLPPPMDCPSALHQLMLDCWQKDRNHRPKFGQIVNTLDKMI
# Protocol: (§4) Kinase domains were produced by ProQinase using human cDNAs to express recombinant GST/His-fusion proteins that were purified by affinity chromatography and determined to be enzymatically active by phosphorylation of a Poly (Glu, Tyr) substrate. The FDA compounds were assayed in 10 concentrations in the range from 1×10^−4 M to 3×10^−9 M for their ability to effect kinase activities. The final DMSO concentration in the reaction cocktails was 1% in all cases. Kinase assays were performed in 96-well FlashPlates™ from PerkinElmer (Boston, Mass., USA) in a 50 μl reaction volume. The reaction cocktail was pipetted in four steps in the following order: 20 μl of assay buffer (standard buffer), 5 μl of ATP solution (in H2O), 5 μl of test compound (in 10% DMSO), and 20 μl enzyme/substrate mix. […] The reaction cocktails were incubated at 30° C. for 60 minutes. The reaction was stopped with 50 μl of 2% (v/v) H3PO4, plates were aspirated and washed two times with 200 μl 0.9% (w/v) NaCl. Incorporation of ^33Pi was determined with a microplate scintillation counter (Microbeta, Wallac). All assays were performed with a BeckmanCoulter/SAGIAN™ Core System. The median value of the counts in column 1 (n=8) of each assay plate was defined as “low control”. This value reflects unspecific binding of radioactivity to the plate in the absence of a protein kinase but in the presence of the substrate. […] The residual activity (in %) for each well of a particular plate was calculated by using the following formula: Res. Activity (%)=100×[(cpm of compound−low control)/(high control−low control)] […]
# (§5) For each kinase, the median value of the cpm of three wells with complete reaction cocktails, but without kinase, was defined as “low control” (n=3). This value reflects unspecific binding of radioactivity to the plate in the absence of protein kinase but in the presence of the substrate. […] The residual activity (in %) for each well of each row of a particular plate was calculated by using the following formula: Res. Activity (%)=100×[(cpm of compound−low control)/(high control−low control)]. […]
# [4] = biological target: T4, EphB4 kinase domain (Homo sapiens, UniProt P54760); test: Radiometric protein kinase assay (33PanQinase Activity Assay), EphB4
# T4 sequence (P54760 615-899 limits assumed): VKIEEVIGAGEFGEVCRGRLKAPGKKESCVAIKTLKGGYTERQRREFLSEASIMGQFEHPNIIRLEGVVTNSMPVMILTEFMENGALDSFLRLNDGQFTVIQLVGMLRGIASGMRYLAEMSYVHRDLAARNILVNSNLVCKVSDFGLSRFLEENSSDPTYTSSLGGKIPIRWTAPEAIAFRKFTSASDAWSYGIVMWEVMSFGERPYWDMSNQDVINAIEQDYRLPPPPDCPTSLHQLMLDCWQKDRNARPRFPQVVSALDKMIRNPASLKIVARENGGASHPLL
# Protocol: as §4, §5
# [5] = system: Human glioblastoma (GBM) cells; test: Glioblastoma cell migration; type: cell-based; conditions: 12.5, 25, 50, and 100 μM; after 24 hours
# Protocol: Cell migration was tested after 24 hours.
# [6] = system: Capsaicin Induced pain model; test: Capsaicin Induced pain model (Hargreaves and Von Frey tests); type: in vivo, CD1 mice; conditions: capsaicin-injected paw vs controls; Demeclocycline 17 mg/kg/day, DC 7 mg/kg/day, MCD 5 mg/kg/day, p.o
# Protocol: (§1) Animals. A total of 40 male outbred CD1 mice were obtained from Charles River Laboratories at 8 weeks of age. Mice were housed in the animal facility of UT southwestern Medical Center, with constant temperature (21-24° C.) and humidity (30-50%) with free access to standard animal feed and water. The room was kept on a 12/12 light/dark cycle, with white light (light cycle) on at 2400 hours and red lights (dark cycle) on at 1200 hours. All of the procedures were conducted with approval from the UT southwestern Medical Center Institutional Animal Care and Use Committee (IACUC Protocol No. 2017-102090). Ugo Basile® the original Plantar Test (Hargreaves Apparatus) was used for thermal stimulation, where infrared beam was adjusted to give an average paw withdrawal latency of about 10 s in wild type mice and cut-off time was set to 30 s to avoid tissue damage. Ugo Basile® Dynamic Plantar Aesthesiometer (DPA) for mechanical stimulation (Electronic Von Frey) were used for mechanical stimulation, where the force (grams) was set at 50 g to prevent tissue damage. Animals were placed in clear acrylic cubicles (22×16.5×14 cm) for at least one hour prior testing. The testing/recording was done every 5 minutes with no repetition for the same mouse. Blinded person(s) to the individual treatment assignments recorded true reflexes.
# Capsaicin Induced pain model. […]
# [7] = system: Complete freund's adjuvant (CFA) Induced pain model; test: Complete freund's adjuvant (CFA) Induced pain model (Hargreaves and Von Frey tests); type: in vivo, CD1 mice
# Protocol: as §1
# Complete freund's adjuvant (CFA) Induced pain model. […] A baseline was for detected for the mice behavior towards thermal hyperalgesia using Hargreaves Test and mechanical allodynia using Von Frey Test. The drugs were administered via gavage for three consecutive days before CFA injection. On the morning of the experiment (6 hours before CFA injection), the last dose of drugs was administered. CFA was injected in the right paw, while the left paw remained un-injected as control. The testing involved two stimulus thermal hyperalgesia using Hargreaves Test and mechanical allodynia using Von Frey Test at Days 1, 2, 3, and 5.
# [8] = tested at Days 1, 2, 3, and 5, P<0.001
Compound,inhibition of EphB1 kinase activity [1],IC50 [2] [µM],IC50 [3] [µM],IC50 [4] [µM],IC50 [1] [µM],also measured
CCC(=O)NCC[C@@H]1CCc2ccc3c(c21)CCO3 [ramelteon],failed to inhibit,–,–,–,–,–
CN(C)c1ccc(O)c2c1C[C@H]1C[C@H]3[C@H](N(C)C)C(O)=C(C(N)=O)C(=O)[C@@]3(O)C(O)=C1C2=O [minocycline],–,92,37 to 92,37 to 92,56,–
"CN(C)[C@@H]1C(O)=C(C(N)=O)C(=O)[C@@]2(O)C(O)=C3C(=O)c4c(O)ccc(Cl)c4[C@@H](O)[C@H]3C[C@@H]12 [Demeclocycline, demeclocycline]",–,47,37 to 92,37 to 92,39,"glioblastoma cell migration [5]: inhibited glioblastoma cell migration; influence on EphB3 catalytic activity ([2]; low nanomolar ranges (biphasic)): slightly elevated activity; paw withdrawal latency, thermal stimulus (Hargreaves) [6]: prolonged the paw withdrawal latency; response to mechanical stimulus (von Frey) [6]: same behavior was observed; paw withdrawal latency, thermal stimulus (Hargreaves) ([7]; injected paw vs controls, p.o): prolonged the paw withdrawal latency; response to mechanical stimulus (von Frey) ([7]; injected paw vs controls, p.o): same behavior was observed; time until which significant improvement for mechanical (tactile) allodynia was shown [7, 8]: 1 days; time until which significant improvement in paw withdrawal latency for thermal hyperalgesia was shown [7, 8]: ≤ 2 days"
NC(=O)C(c1ccccc1)(c1ccccc1)[C@@H]1CCN(CCc2ccc3c(c2)CCO3)C1 [darifenacin],failed to inhibit,–,–,–,–,–
CN(C)[C@@H]1C(O)=C(C(N)=O)C(=O)[C@@]2(O)C(O)=C3C(=O)c4c(O)ccc(Cl)c4[C@@](C)(O)[C@H]3C[C@@H]12 [chlortetracycline],–,55,37 to 92,37 to 92,44,–
